Test results reported in patent publication US12636272B2, “Method and composition for inhibiting virus infection” (ARJIL BIOTECH HOLDING COMPANY LIMITED, priority 2020, dated 2026).
Values joined by “and” are separate entries in the source; they are usually repeats but may differ in a detail not shown here. Identical values can stand only once.

Legend:
[1] = tested on: SARS-COV-2 (NTU13); assay: Plaque reduction assay in Vero E6 cells; assay type: cell-based; conditions: 1 μM RDV*
[2] = tested on: HBV; assay: HBsAg secretion of HepG2.2.15 cells (ELISA); assay type: cell-based, Hepatitis B virus (HBV)
Source text: (§1) Continuous HBV proliferation can be achieved in HepG2.2.15 cells (RRID:CVCL_L855) stably transfected with the HBV genome of the adw2 subtype. HepG2.2.15 cells are used because of the unlimited supply and constant quality and were maintained in Dulbecco's modified Eagle medium (DMEM; Invitrogen) supplemented with 10% heat-inactivated fetal bovine serum (FBS; Thermo) plus 100 units of penicillin and […] of streptomycin per ml (both from Invitrogen).
(§2) To test whether AR100-DS1 had any effect on HBV genome replication, assembly, or secretion, HepG2.2.15 cells that were stably transfected with HBV genome, were used to incubate with AR 100-DS1 for 48 hours, then HBsAg and HBV DNA collected from medium were measured by ELISA and real-time PCR.

[3] = tested on: HBV; assay: HBV DNA level in the culture medium of HepG2.2.15 cells (real-time PCR); assay type: cell-based, Hepatitis B virus (HBV)
Source text: as §1
The culture medium from drug-treated HepG2.2.15 cells is clarified by centrifugation at 1,000× g at 4° C. for 10 min, and then the supernatant is layered on top of a 20% sucrose cushion (20% sucrose, 20 mM HEPES, pH 7:4, 0.1% bovine serum albumin [BSA]) and centrifuged at 197,000× g for 3 h at 4° C. to pellet the HBV particles, which are then concentrated 100 fold to detect HBV DNA.
Total DNA is extracted with a Genomic DNA isolation kit (Nexttee Biotechnologie, Germany). Total RNA is isolated from cultured cells using TRIzol® reagent (Invitrogen). […] The results are analyzed with the iCycler iQ real-time PCR detection system (Bio-Rad). […]
as §2

[4] = tested on: HBV; assay: HBV infectivity/entry in HuS-E/2 cells (HBsAg ELISA, HBV mRNA real-time PCR); assay type: cell-based, Hepatitis B virus (HBV)
[5] = tested on: HuS-E/2 cells; assay: Cell viability of HuS-E/2 cells (MTT assay); assay type: cell-based; conditions: 0-1000 μg/ml AR100-DS1 for 48 h
[6] = tested on: HepG2.2.15 cells; assay: Cell viability of HepG2.2.15 cells; assay type: cell-based
[7] = HuS-E/2 cells, 0, 5 and 10 of AR100-DS1 during infection for 18 h, then 48 hours

| Structure (SMILES) | Inhibition (%) to DMSO mean [1] [%] | Inhibition (%) to virus mean [1] [%] | Plaque number per well mean [1] | secretion of HBsAg ([2]; 0, 20 and 40 μg/ml AR100-DS1, HepG2.2.15 cells (FIG. 1C)) | secretion of HBsAg reduced to ([2]; 10 μg/ml AR100-DS1, 48 hours, HepG2.2.15 cells) [%] | secretion of HBsAg reduced to ([2]; 20 μg/ml AR100-DS1, 48 hours, HepG2.2.15 cells (FIGS. 1A and 1B)) | secretion of HBsAg reduced to ([2]; 50 μg/ml AR100-DS1, 48 hours, HepG2.2.15 cells) [%] | HBV DNA level in medium ([3]; 20 μg/ml AR100-DS1, 48 hours) | HBV DNA level in medium ([3]; 40 μg/ml AR100-DS1, 48 hours) | entry of HBV in HuS-E/2 cells ([4]; HuS-E/2 cells) | HBV mRNA expression level [4, 7] | secretion of HBsAg in the medium [4, 7] | cell viability [5] | cell viability [6] |
| --- | --- | --- | --- | --- | --- | --- | --- | --- | --- | --- | --- | --- | --- | --- |
| CCC(CC)COC(=O)[C@H](C)N[P@](=O)(OC[C@H]1O[C@@](C#N)(c2ccc3c(N)ncnn23)[C@H](O)[C@@H]1O)Oc1ccccc1 [RDV, remdesivir] | 80 | 82 | 32 | – | – | – | – | – | – | – | – | – | – | – |
| C=C1C(=O)O[C@H]2/C=C(\C)CC3C=C(CC/C=C(\C)CC[C@H]12)C(=O)O3 (some centres unmarked) [AR100-DS1] | – | – | – | significantly inhibited | 75.25 | 69.77% and 63.00% | 56.78 | significantly reduced | significantly reduced | could not prevent HBV entering into HuS-E/2 cells | neither secretion of HBsAg in the medium nor HBV mRNA expression level showed dose-dependent reduction | neither secretion of HBsAg in the medium nor HBV mRNA expression level showed dose-dependent reduction | marked dose-dependent reduction in cell viability | marked dose-dependent reduction in cell viability |
